Laboratory results reported in the NIST ThermoML archive (doi:10.1021/je2008704).

Settings: Liquid, Ebulliometric method (Recirculating still)

OCCO [1,2-ethanediol]
Settings	vapor or sublimation pressure [kPa]
412.81 K	13.33
422.78 K	20
430.26 K	26.66
436.37 K	33.33
441.5 K	40
445.96 K	46.66
449.93 K	53.33
453.52 K	60
456.78 K	66.66
459.79 K	73.33
462.58 K	79.99
465.18 K	86.66
467.62 K	93.32
469.48 K	98.66
470.02 K	100.4

CCO [ethanol]
Settings	vapor or sublimation pressure [kPa]
329.67 K	40
336.06 K	53.33
341.23 K	66.66
345.59 K	79.99
349.38 K	93.32
351.03 K	99.74

O [water]
Settings	vapor or sublimation pressure [kPa]
349.09 K	40
356.17 K	53.33
361.87 K	66.66
366.69 K	79.99
370.88 K	93.32
372.76 K	100
